From US8232406B2, “c-MET protein kinase inhibitors” (Vertex Pharmaceuticals Incorporated, priority 2006, dated 2012)

Biological target: c-MET (Homo sapiens, UniProt P08581)
Test: Ki determination for the inhibition of c-MET (standard radiometric 33P-ATP kinase assay, polyE4Y substrate)
Assay type: biochemical
Conditions: 1.0 nM c-Met, 35 μM ATP, 0.5 mg/mL polyE4Y, 20 min; competitive tight-binding fit
In short: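 Ki obtained by fitting data to competitive tight-binding inhibition kinetics. c-Met at 1.0 nM phosphorylated polyE4Y (0.5 mg/mL) with 35 μM 33P-ATP for 20 min in pH 7.5 HEPES buffer with MgCl2, NaCl, BSA and DTT. Incorporated label measured by scintillation after TCA precipitation on filters.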

c-MET, sequence (P08581 25-1390): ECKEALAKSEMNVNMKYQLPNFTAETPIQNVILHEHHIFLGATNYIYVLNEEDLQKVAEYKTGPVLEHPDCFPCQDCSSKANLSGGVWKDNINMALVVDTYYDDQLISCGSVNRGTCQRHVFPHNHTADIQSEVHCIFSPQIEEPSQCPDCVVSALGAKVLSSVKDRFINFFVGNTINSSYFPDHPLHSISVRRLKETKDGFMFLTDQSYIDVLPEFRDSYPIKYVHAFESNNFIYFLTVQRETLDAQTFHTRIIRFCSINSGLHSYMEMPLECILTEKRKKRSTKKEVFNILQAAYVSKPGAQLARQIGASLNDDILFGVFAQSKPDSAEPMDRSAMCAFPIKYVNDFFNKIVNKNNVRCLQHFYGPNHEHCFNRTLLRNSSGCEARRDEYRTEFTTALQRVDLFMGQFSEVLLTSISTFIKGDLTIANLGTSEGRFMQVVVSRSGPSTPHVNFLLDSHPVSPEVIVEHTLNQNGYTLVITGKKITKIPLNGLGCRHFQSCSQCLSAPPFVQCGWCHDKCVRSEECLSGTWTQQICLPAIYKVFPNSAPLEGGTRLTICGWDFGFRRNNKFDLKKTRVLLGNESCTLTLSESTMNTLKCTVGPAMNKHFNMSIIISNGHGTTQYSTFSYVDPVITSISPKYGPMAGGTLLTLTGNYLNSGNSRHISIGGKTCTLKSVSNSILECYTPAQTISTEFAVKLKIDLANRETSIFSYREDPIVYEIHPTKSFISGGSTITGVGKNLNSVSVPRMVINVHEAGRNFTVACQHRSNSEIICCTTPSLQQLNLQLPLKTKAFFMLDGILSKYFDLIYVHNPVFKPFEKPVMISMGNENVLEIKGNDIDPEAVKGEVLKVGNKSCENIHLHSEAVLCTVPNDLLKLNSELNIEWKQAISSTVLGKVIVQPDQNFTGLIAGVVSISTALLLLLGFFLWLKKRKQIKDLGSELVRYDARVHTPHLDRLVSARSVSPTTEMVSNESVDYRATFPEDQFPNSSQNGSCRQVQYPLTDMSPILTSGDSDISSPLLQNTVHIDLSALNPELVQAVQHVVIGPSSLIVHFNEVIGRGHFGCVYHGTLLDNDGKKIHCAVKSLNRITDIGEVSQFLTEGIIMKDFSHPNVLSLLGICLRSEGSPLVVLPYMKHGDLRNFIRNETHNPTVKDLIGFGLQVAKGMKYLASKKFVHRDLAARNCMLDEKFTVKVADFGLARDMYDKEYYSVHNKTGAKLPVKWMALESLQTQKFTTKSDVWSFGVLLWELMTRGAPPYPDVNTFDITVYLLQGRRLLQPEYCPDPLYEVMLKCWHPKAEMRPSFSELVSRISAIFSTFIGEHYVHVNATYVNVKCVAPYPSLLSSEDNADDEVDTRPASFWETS

| Compound | Ki [µM] |
| --- | --- |
| CC(=O)Nc1ccc(-c2cnc(N)c(-c3nnnn3-c3c(F)ccc(F)c3Cl)c2)cc1 [I-A-614] | 0.1 to 1 |
| COc1cc(-c2cnc(N)c(-c3nnnn3-c3cccc(F)c3F)c2)cc(OC)c1OC [I-A-296] | 0.1 to 1 |
| Nc1ncc(-c2ccc(CN3CCCC3)cc2)cc1-c1nnnn1-c1cccc(Cl)c1 [I-A-356] | 0.1 to 1 |
| NCc1ccc(-c2cnc(N)c(-c3nnnn3-c3cccc(F)c3F)c2)cn1 [I-A-155] | 0.1 to 1 |
| COc1ccc(F)cc1-n1nnnc1-c1cc(-c2ccc(NC(C)=O)cc2)cnc1N [I-A-585] | 0.1 to 1 |
| Nc1ncc(-c2cccc(NC(=O)N3CCCC3)c2)cc1-c1nnnn1-c1cccc(F)c1F [I-A-269] | 0.1 to 1 |
| CC(=O)Nc1ccc(-c2cnc(N)c(-c3nnnn3-c3c(F)cccc3F)c2)cc1 [I-A-607] | 0.1 to 1 |
| Cc1ccc(Cl)cc1-n1nnnc1-c1cc(-c2ccc(CN3CCCC3)cc2)cnc1N [I-A-600] | 0.1 to 1 |
| CN1CCN(Cc2ccc(-c3cnc(N)c(-c4nnc(O)n4-c4cccc(F)c4F)c3)cc2)CC1 [I-A-42] | 0.1 to 1 |
| CC(C)C(=O)Nc1cccc(-c2cnc(N)c(-c3nnnn3-c3cccc(F)c3F)c2)c1 [I-A-260] | 0.1 to 1 |
| CC(C)c1ccc(-c2cnc(N)c(-c3nnnn3-c3cccc(F)c3F)c2)cc1 [I-A-237] | 0.1 to 1 |
| CC(=O)c1cccc(-c2cnc(N)c(-c3nncn3-c3cccc(F)c3F)n2)c1 [I-A-29] | 0.1 to 1 |
| Nc1ncc(-c2ccc(CN3CCCC3)cc2)cc1-c1nc2cccnc2n1-c1cccc(Cl)c1F [I-D-14] | 0.1 to 1 |
| CC(=O)Nc1cccc(-c2cnc(N)c(-c3nnnn3-c3c(F)ccc(F)c3N)c2)c1 [I-A-383] | 0.1 to 1 |
| CN1CCN(c2ccc(-c3cnc(N)c(-c4nn(C)cc4-c4cccc(Cl)c4Cl)c3)cc2)CC1 [I-B-21] | 0.1 to 1 |
| CC(=O)Nc1ccc(-c2cnc(N)c(-c3nnnn3-c3cccc(Cl)c3C)c2)cc1 [I-A-575] | 0.1 to 1 |
| N#Cc1cccc(-c2cnc(N)c(-c3nnnn3-c3cccc(F)c3F)c2)c1 [I-A-228] | 0.1 to 1 |

| Compound | Ki [µM] |
| --- | --- |
| COc1ccc(F)cc1-n1nnnc1-c1cc(-c2ccc(CN(C)C)cc2)cnc1N [I-A-606] | 0.1 to 1 |
| COc1c(F)cccc1-n1nnnc1-c1cc(-c2ccc(CN3CCCC3)cc2)cnc1N [I-A-604] | 0.1 to 1 |
| Nc1ncc(-c2cccnc2)cc1-c1nnnn1-c1c(Cl)cccc1Cl [I-A-609] | 0.1 to 1 |
| Nc1ncc(-c2ccc(F)cc2)cc1-c1nncn1-c1cccc(F)c1F [I-A-112] | 0.1 to 1 |
| Nc1ncc(-c2ccc(N3CCCC3)nc2)nc1-c1nnc(O)n1-c1cccc(F)c1F [I-A-18] | 0.1 to 1 |
| Cc1c(Cl)cccc1-n1nnnc1-c1cc(-c2ccc(CN(C)C)cc2)cnc1N [I-A-578] | 0.1 to 1 |
| N#Cc1cccc(-c2cnc(N)c(-c3nncn3-c3cccc(F)c3F)n2)c1 [I-A-30] | 0.1 to 1 |
| CC(C)(C)C(=O)Nc1ccc(-c2cnc(N)c(-c3nnnn3-c3cccc(F)c3F)c2)cc1 [I-A-194] | 0.1 to 1 |
| CN(C(=O)Nc1ccc(-c2cnc(N)c(-c3nnnn3-c3cccc(F)c3F)c2)cc1)c1ccccc1 [I-A-279] | 0.1 to 1 |
| Nc1ncc(-c2ccc(N3CCCC3)nc2)cc1-c1nncn1-c1cccc(F)c1F [I-A-40] | 0.1 to 1 |
| Nc1ncc(-c2csc(C3CCNCC3)c2)cc1-c1nnnn1-c1cccc(F)c1F [I-A-463] | ≤ 0.1 |
| Cn1cc(-c2cccc(Cl)c2Cl)c(-c2cc(-c3ccc(N4CCCC4)nc3)cnc2N)n1 [I-B-20] | 0.1 to 1 |
| CC(=O)Nc1cccc(-c2cnc(N)c(-c3nnnn3-c3cc(F)ccc3F)c2)c1 [I-A-567] | 0.1 to 1 |
| Nc1ncc(-c2ccc(CN3CCCC(CO)C3)cc2)cc1-c1nnnn1-c1cccc(Cl)c1Cl (centres unmarked) [I-A-99] | ≤ 0.1 |
| Nc1ncc(-c2ccn(CCN3CCCC3)c2)cc1-c1nnnn1-c1cccc(F)c1F [I-A-466] | ≤ 0.1 |
| Nc1ncc(-c2cnc(C3CCNCC3)s2)cc1-c1nnnn1-c1cccc(Cl)c1F [I-A-491] | ≤ 0.1 |

More lines, now with the values ahead:

| Ki [µM] | Compound |
| --- | --- |
| ≤ 0.1 | CCN1CCC[C@@H](n2cc(-c3cnc(N)c(-c4nnnn4-c4cccc(Cl)c4Cl)c3)cn2)C1 [I-A-499] |
| ≤ 0.1 | CC(=O)Nc1ccc(-c2cnc(N)c(-c3nnnn3-c3cccc(F)c3F)c2)s1 [I-A-263] |
| ≤ 0.1 | CC(=O)N1CCC(n2cc(-c3cnc(N)c(-c4nnnn4-c4cccc(F)c4F)c3)cn2)CC1 [I-A-455] |
| ≤ 0.1 | Nc1ncc(-c2cnn(CC(O)CO)c2)cc1-c1nc2cnccc2n1-c1cccc(F)c1F [I-D-10] |
| ≤ 0.1 | Nc1ncc(-c2ccc(CN3CCC[C@H]3CO)cc2)cc1-c1nnnn1-c1cccc(Cl)c1Cl [I-A-122] |
| ≤ 0.1 | Nc1ncc(-c2cnn(C3COCOC3)c2)cc1-c1nnnn1-c1cccc(F)c1F [I-A-432] |
| ≤ 0.1 | CCN(CC)Cc1ccc(-c2cnc(N)c(-c3nnnn3-c3cccc(F)c3F)c2)cc1 [I-A-66] |
| ≤ 0.1 | Nc1ncc(-c2ccc(CN3CCCC3)c([N+](=O)[O-])c2)cc1-c1nnnn1-c1cccc(F)c1F [I-A-340] |
| ≤ 0.1 | Nc1ncc(-c2cnn(C3CCOCC3)c2)cc1-c1nnnn1-c1cccc(Cl)c1F [I-A-397] |
| ≤ 0.1 | Nc1ncc(C2=CCN(C(=O)c3cccnc3)CC2)cc1-c1nnnn1-c1cccc(F)c1F [I-A-507] |
| ≤ 0.1 | Nc1ncc(-c2cncs2)cc1-c1nnnn1-c1cccc(F)c1F [I-A-540] |
| ≤ 0.1 | CC(=O)Nc1ccc(-c2cnc(N)c(-c3nc4cnccc4n3-c3cccc(F)c3F)c2)cc1 [I-D-13] |
| ≤ 0.1 | CC(=O)Nc1ccc(-c2cnc(N)c(-c3nncn3-c3cccc(F)c3F)n2)cc1 [I-A-11] |
| ≤ 0.1 | Nc1ncc(-c2cccc(N3CCNCC3)c2)cc1-c1nnnn1-c1cccc(F)c1F [I-A-414] |
| ≤ 0.1 | CC(=O)N1CCCC1c1ccc(-c2cnc(N)c(-c3nnnn3-c3cccc(F)c3F)c2)cc1 (centres unmarked) [I-A-335] |
| ≤ 0.1 | COCCN1CCC(n2cc(-c3cnc(N)c(-c4nnnn4-c4cccc(Cl)c4F)c3)cn2)CC1 [I-A-477] |
| ≤ 0.1 | Nc1ncc(-c2ccc(CN3CCCC3)cc2)cc1-c1nnnn1-c1c(F)cccc1Cl [I-A-616] |
| ≤ 0.1 | Nc1ncc(-c2cccc(NC(=O)C3CC3)c2)cc1-c1nnnn1-c1cccc(F)c1F [I-A-261] |
| ≤ 0.1 | Nc1ncc(-c2cnn(C3CNC3)c2)cc1-c1nnnn1-c1cccc(Cl)c1F [I-A-650] |
| ≤ 0.1 | CC(=O)Nc1ccc(-c2cnc(N)c(-c3nnnn3-c3cccc(F)c3F)c2)c(F)c1 [I-A-126] |
| ≤ 0.1 | Nc1ncc(-c2ccc(NC(=O)CN3CCCC3)cc2)cc1-c1nnnn1-c1cccc(F)c1F [I-A-184] |
| ≤ 0.1 | Nc1ncc(-c2ccc(N3CC(CO)OC3=O)cc2)cc1-c1nnnn1-c1cccc(F)c1F (centres unmarked) [I-A-372] |
| ≤ 0.1 | Nc1ncc(-c2ccc(CCN3CCCC3)cc2)cc1-c1nnnn1-c1cccc(F)c1F [I-A-181] |
| ≤ 0.1 | Nc1ncc(C2=CCN(C(=O)CC3CCOCC3)CC2)cc1-c1nnnn1-c1cccc(F)c1F [I-A-516] |
| ≤ 0.1 | CC(C)OC(=O)N1CC=C(c2cnc(N)c(-c3nnnn3-c3cccc(F)c3F)c2)CC1 [I-A-508] |

| Ki [µM] | Compound |
| --- | --- |
| ≤ 0.1 | CS(=O)(=O)Nc1cccc(-c2cnc(N)c(-c3nnnn3-c3cccc(F)c3F)c2)c1 [I-A-254] |
| ≤ 0.1 | Nc1ncc(-c2cnn(CCO)c2)cc1-c1nc2cnccc2n1-c1cccc(F)c1F [I-D-8] |
| ≤ 0.1 | COc1cc(-c2cnc(N)c(-c3nnnn3-c3cccc(F)c3F)c2)ccc1O [I-A-299] |
| ≤ 0.1 | CN1CCC[C@H]1C(=O)N1CC=C(c2cnc(N)c(-c3nnnn3-c3cccc(F)c3F)c2)CC1 [I-A-503] |
| ≤ 0.1 | COCCN1CCC(n2cc(-c3cnc(N)c(-c4nncn4-c4cccc(F)c4F)c3)cn2)CC1 [I-A-476] |
| ≤ 0.1 | Nc1ncc(-c2ccn(C3CCNCC3)c2)nc1-c1nnnn1-c1cccc(F)c1F [I-A-534] |
| ≤ 0.1 | CN(C)Cc1ccc(-c2cnc(N)c(-c3nnnn3-c3cccc(Cl)c3F)c2)cc1 [I-A-360] |
| ≤ 0.1 | Nc1ncc(-c2ccc(CN3CCCC3)c(F)c2)cc1-c1nnnn1-c1cccc(F)c1F [I-A-213] |
| ≤ 0.1 | CCCS(=O)(=O)N1CCC(n2cc(-c3cnc(N)c(-c4nnnn4-c4cccc(Cl)c4F)c3)cn2)CC1 [I-A-446] |
| ≤ 0.1 | Nc1ncc(-c2ccc(F)cc2)cc1-c1nnnn1-c1cccc(F)c1F [I-A-223] |
| ≤ 0.1 | CCCN(CCC)Cc1ccc(-c2cnc(N)c(-c3nnnn3-c3cccc(F)c3F)c2)cc1 [I-A-156] |
| ≤ 0.1 | CN(C)Cc1ccc(-c2cnc(N)c(-c3nnnn3-c3c(F)cccc3F)c2)cc1 [I-A-619] |
| ≤ 0.1 | Nc1ncc(-c2ccc(N3CC(=O)NC3=O)cc2)cc1-c1nnnn1-c1cccc(F)c1F [I-A-256] |
| ≤ 0.1 | Nc1ncc(-c2cnn(CC3CCNCC3)c2)cc1-c1nnnn1-c1cccc(F)c1F [I-A-502] |
| ≤ 0.1 | Cc1nc(-c2cc(-c3cccnc3)cnc2N)c(-c2cccc(Cl)c2Cl)o1 [I-C-6] |
| ≤ 0.1 | Nc1ncc(-c2cccc(NC(=O)Nc3cccnc3)c2)cc1-c1nnnn1-c1cccc(F)c1F [I-A-272] |
| ≤ 0.1 | COCCC(=O)N1CC=C(c2cnc(N)c(-c3nnnn3-c3cccc(F)c3F)c2)CC1 [I-A-514] |
| ≤ 0.1 | Nc1ncc(-c2cnn(CC3CCNC3)c2)cc1-c1nnnn1-c1cccc(F)c1F (centres unmarked) [I-A-501] |
| ≤ 0.1 | Nc1ncc(-c2cnn(C3CCN(CC4CCC4)CC3)c2)cc1-c1nnnn1-c1cccc(Cl)c1F [I-A-473] |
| ≤ 0.1 | CN1CCN(c2ccc(-c3cnc(N)c(-c4nc5cnccc5n4-c4cccc(F)c4F)c3)cc2)CC1 [I-D-2] |
| ≤ 0.1 | CCC(CC)C(=O)Nc1ccc(-c2cnc(N)c(-c3nnnn3-c3cccc(F)c3F)c2)cc1 [I-A-197] |
| ≤ 0.1 | Nc1ncc(-c2ccc(CN3CCCC3)s2)cc1-c1nnnn1-c1cccc(F)c1F [I-A-186] |
| ≤ 0.1 | CSc1ccc(-c2cnc(N)c(-c3nnnn3-c3cccc(F)c3F)c2)cc1 [I-A-251] |
| ≤ 0.1 | CC(C)(C#N)c1ccc(-c2cnc(N)c(-c3nnnn3-c3cccc(F)c3F)c2)cc1 [I-A-266] |
| ≤ 0.1 | CC(N)c1ccc(-c2cnc(N)c(-c3nnnn3-c3cccc(F)c3F)c2)cn1 (centres unmarked) [I-A-129] |
